Three compounds from US20020182240A1, “Cosmetics with hydrofluoroether (HFE)” (Daikin Industries, priority 1997, published 2002) can be followed below.

For one data set, the system named is the skin. Kind of data set: use of the cosmetic applied onto the skin (feeling in use, evaporation of the HFE, skin moisture). It is filed as in vivo. The settings on record: after the cosmetic was applied onto the skin. The protocol:
50% by weight of a perfluoropolyether (FOMBLIN HC/04 manufactured by Audimont) (viscosity at 25° C.: 70 mPa·s) was mixed with 50% by weight of C4F9OCH3 (HFE A) (viscosity at 25° C.: 0.6 mPa·s) under stirring to give a solution. Thereafter, a very small amount of a perfume was added to give a non-aqueous lotion. This non-aqueous lotion was felt very smooth in use.
The powder ingredients in the formulation shown in Table 2 were mixed and ground with an atomizer and then transferred to a Henschel mixer. Then FOMBLIN HC/04 was added thereto, and the mixture was uniformly mixed. The mixture was dispersed in […] (HFE B) (viscosity at 25° C.: 0.7 mPa·s) to give a solvent dispersion-type foundation. This solvent dispersion-type foundation was felt very smooth in use.
The ingredients (1) to (8) in the formulation shown in Table 3 were mixed and ground in a colloid mill. After this mixture was heated at 80° C., the ingredients (9) to (13) which had been heated and mixed at 80° C. were added thereto and emulsified uniformly in a homomixer. The ingredient (14) was added to this emulsion, further emulsified uniformly in a homomixer, and cooled to room temperature to give a liquid foundation. This liquid foundation was felt very smooth in use. […]

Data set [1] is described as follows: viscosity by Brookfield type viscometer or capillary tube viscometer. It is filed as physicochemical. The protocol: The viscosity of the fluorine-containing oil is e.g. at least 5 mPa·s, particularly 10 to 10,000 mPa·s. The viscosity of the fluorine oil (and the HFE) was measured by a Brookfield type viscometer or a capillary tube viscometer.

One may read the viscosity as the resistance of a fluid to flow. Higher therefore signals a thick fluid. Turning to C4F9OCH3 [HFE A], the “evaporation of the HFE” value with the skin is on record as “evaporated rapidly”. Further, the “viscosity at 25° C.” value in data set [1] stood at 0.6 mPa·s. Turning to `FC(F)C(F)(F)OCC1(COCC(COC(F)(F)C(F)F)(COC(F)(F)C(F)F)COC(F)(F)C(F)F)COC1` [chemical formula B], the “viscosity at 25° C.” value in data set [1] is reported as 40 mPa·s. Regarding `CCOC(F)(F)C(F)(F)C(F)(F)C(F)(F)F` [HFE B, C4F9OC2H5], the “evaporation of the HFE” value with the skin is reported as “evaporated rapidly”. For the same compound, in data set [1], the “viscosity at 25° C.” value was found to be 0.7 mPa·s.
